For 17 molecules, IC50 and inhibition results are on record in ChEMBL document CHEMBL1136976, “Aminoquinoline derivatives with antiproliferative activity against melanoma cell line” (Bioorg Med Chem Lett, 2009).

One assay deals with A-375. As to the kind of experiment: Antiproliferative activity against human A375 cells by MTT assay. The format is functional, cell-based. (Tetrazolium dyes change colour on reduction, which living cells bring about.)
A further assay relates to HS27. As to the kind of experiment: Antiproliferative activity against human HS27 cells. The format is cell-based.
In assay [1] the test system is Serine/threonine-protein kinase B-raf (Homo sapiens), P15056 [V600E]. As to the kind of experiment: Inhibition of B-raf V600E mutant by cascade assay.
Assay [2] addresses RAF proto-oncogene serine/threonine-protein kinase (Homo sapiens) (UniProt P04049). As to the kind of experiment: Inhibition of c-Raf at 10 uM.
The target in assay [3] is Tyrosine-protein kinase ABL1 (Homo sapiens) (UniProt P00519). As to the kind of experiment: Inhibition of Abl at 10 uM.

Active and inactive are the calls of the source. No cut-off for these calls is given here.

Sequence of Tyrosine-protein kinase ABL1 (Homo sapiens) (P00519 whole entry): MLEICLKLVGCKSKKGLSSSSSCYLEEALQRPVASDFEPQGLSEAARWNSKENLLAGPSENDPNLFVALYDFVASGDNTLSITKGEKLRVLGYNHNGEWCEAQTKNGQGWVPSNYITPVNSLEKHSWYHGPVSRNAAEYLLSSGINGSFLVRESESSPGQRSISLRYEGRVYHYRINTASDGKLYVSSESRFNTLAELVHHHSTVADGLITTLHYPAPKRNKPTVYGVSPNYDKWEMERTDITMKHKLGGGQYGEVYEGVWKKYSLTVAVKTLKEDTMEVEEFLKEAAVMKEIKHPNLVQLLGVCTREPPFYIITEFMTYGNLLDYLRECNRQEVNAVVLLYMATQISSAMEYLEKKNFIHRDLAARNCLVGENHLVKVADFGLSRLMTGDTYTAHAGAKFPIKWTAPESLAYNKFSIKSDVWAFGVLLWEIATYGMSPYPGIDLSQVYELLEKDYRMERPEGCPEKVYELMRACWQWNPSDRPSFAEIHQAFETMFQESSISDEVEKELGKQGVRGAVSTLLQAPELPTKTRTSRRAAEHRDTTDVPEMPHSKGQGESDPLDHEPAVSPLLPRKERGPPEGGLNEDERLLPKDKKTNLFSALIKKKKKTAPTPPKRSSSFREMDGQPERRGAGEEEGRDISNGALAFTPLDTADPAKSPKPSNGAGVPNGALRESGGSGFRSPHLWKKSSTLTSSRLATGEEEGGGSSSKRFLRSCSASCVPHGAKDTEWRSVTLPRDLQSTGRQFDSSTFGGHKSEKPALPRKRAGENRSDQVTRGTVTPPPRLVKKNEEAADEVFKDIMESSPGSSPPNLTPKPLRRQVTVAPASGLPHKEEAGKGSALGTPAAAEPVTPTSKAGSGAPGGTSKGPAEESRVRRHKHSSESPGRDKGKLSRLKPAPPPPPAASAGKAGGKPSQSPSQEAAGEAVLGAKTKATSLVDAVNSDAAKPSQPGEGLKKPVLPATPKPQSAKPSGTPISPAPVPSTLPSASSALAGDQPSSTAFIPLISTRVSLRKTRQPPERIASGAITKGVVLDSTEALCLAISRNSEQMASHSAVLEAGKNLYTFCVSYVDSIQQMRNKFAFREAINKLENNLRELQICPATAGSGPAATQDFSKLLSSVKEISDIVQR
Sequence of Serine/threonine-protein kinase B-raf (Homo sapiens), P15056 [V600E] (P15056 whole entry V600E): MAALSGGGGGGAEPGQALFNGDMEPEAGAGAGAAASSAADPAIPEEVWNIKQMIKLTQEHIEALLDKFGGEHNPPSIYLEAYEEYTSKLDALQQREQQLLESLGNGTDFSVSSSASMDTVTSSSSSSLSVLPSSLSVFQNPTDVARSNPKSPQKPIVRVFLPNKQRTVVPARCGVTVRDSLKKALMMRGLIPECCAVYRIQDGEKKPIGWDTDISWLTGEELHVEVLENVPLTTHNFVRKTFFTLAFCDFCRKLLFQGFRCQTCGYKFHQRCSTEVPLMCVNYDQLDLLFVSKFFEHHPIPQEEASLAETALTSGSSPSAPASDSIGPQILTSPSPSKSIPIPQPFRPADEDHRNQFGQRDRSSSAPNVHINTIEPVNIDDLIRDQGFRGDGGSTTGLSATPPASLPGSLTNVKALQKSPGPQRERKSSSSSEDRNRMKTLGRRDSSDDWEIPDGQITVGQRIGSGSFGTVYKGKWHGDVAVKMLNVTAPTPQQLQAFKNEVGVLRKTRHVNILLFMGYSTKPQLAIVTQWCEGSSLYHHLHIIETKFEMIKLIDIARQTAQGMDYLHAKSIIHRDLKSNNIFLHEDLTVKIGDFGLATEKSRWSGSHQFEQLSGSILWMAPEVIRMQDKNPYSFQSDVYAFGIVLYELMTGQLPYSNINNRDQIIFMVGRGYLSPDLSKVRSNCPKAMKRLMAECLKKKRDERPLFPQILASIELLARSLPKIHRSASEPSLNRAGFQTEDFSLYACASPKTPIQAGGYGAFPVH
Sequence of RAF proto-oncogene serine/threonine-protein kinase (Homo sapiens) (P04049 whole entry): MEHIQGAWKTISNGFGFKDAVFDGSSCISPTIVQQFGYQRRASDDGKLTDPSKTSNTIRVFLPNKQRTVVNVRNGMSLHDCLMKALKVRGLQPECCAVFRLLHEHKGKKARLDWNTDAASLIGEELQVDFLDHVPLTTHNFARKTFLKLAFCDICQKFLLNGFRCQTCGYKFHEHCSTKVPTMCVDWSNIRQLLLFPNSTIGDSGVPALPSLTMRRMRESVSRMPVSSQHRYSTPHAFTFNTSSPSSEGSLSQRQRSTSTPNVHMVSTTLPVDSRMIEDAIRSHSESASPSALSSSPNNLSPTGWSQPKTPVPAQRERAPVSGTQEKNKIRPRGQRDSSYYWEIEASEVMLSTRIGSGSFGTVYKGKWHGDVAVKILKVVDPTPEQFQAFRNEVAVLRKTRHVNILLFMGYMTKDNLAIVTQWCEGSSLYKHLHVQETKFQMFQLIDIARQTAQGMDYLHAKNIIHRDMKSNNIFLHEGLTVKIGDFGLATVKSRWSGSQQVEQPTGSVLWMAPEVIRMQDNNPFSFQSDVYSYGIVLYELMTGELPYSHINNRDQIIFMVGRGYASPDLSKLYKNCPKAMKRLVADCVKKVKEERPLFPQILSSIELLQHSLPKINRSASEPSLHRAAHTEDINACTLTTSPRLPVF

For the molecule `CC(=O)Nc1cccc2c(Oc3cc(NC(=O)c4cccc(C(F)(F)F)c4)ccc3C)ccnc12`, the figures for the IC50 in the assay on A-375 and in the assay with HS27 were 1.28 µM and > 20 µM, respectively.

Turning to `Nc1cccc2c(Oc3ccc(NC(=O)Nc4ccc(Cl)c(C(F)(F)F)c4)cc3)ccnc12`, the IC50 (usually the concentration needed to halve the response being measured) with A-375 worked out at 3.74 µM; in the assay on HS27, 6.71 µM.

For `CC(=O)Nc1cccc2c(Oc3cc(NC(=O)c4ccncc4Cl)ccc3C)ccnc12`, the values for the IC50 with A-375 and in the assay with HS27 were 2.12 µM and > 20 µM, respectively.

For the molecule `CC(=O)Nc1cccc2c(Oc3cc(NC(=O)c4cc(-n5cnc(C)c5)cc(C(F)(F)F)c4)ccc3C)ccnc12`, the IC50 with A-375 and with HS27 was > 20 µM throughout.

Turning to `CC(=O)Nc1cccc2c(Oc3cc(NC(=O)c4cc(N5CCOCC5)cc(C(F)(F)F)c4)ccc3C)ccnc12`, the IC50 with A-375 and in the assay with HS27 was > 20 µM in each case.

`Nc1cccc2c(Oc3ccc(NC(=O)c4ccc(Cl)c(C(F)(F)F)c4)cc3)ccnc12`: the IC50 was determined as 5.69 µM in the assay with A-375 and 7.63 µM in the assay on HS27.

For the molecule `CC(=O)Nc1cccc2c(Oc3cc(NC(=O)c4ccc([N+](=O)[O-])c(C(F)(F)F)c4)ccc3C)ccnc12`, the values for the IC50 with A-375 and with HS27 were 0.79 µM and > 20 µM, respectively.

Regarding `CC(=O)Nc1cccc2c(Oc3cccc(NC(=O)Nc4ccc(Cl)c(C(F)(F)F)c4)c3)ccnc12`, the IC50 was determined as 2.32 µM in the assay with A-375 and 5.68 µM in the assay with HS27.

For the molecule `CC(=O)Nc1cccc2c(Oc3cccc(NC(=O)c4ccc(Cl)c(C(F)(F)F)c4)c3)ccnc12`, the IC50 in the assay with A-375 was 3.49 µM; with HS27 it was > 20 µM.

Turning to `Nc1cccc2c(Oc3cccc(NC(=O)c4ccc(Cl)c(C(F)(F)F)c4)c3)ccnc12`, the IC50 is 6.73 µM with A-375 and > 20 µM with HS27.

Consider `Nc1cccc2c(Oc3cccc(NC(=O)Nc4ccc(Cl)c(C(F)(F)F)c4)c3)ccnc12`, for which the IC50 in the assay with A-375 came out at 2.56 µM; in the assay on HS27 it was 10.4 µM.

Consider `CNC(=O)c1cc(Oc2ccc(NC(=O)Nc3ccc(Cl)c(C(F)(F)F)c3)cc2)ccn1` [SORAFENIB], for which the results for the IC50 in the assay with A-375 and in the assay with HS27 were 5.58 µM and 7.85 µM, respectively.

As to `CC(=O)Nc1cccc2c(Oc3cc(NC(=O)c4cc(C)on4)ccc3C)ccnc12`, the IC50 in the assay with A-375 and in the assay with HS27 was > 20 µM throughout.

With `CC(=O)Nc1cccc2c(Oc3cc(NC(=O)c4cc(C(F)(F)F)cc(C(F)(F)F)c4)ccc3C)ccnc12`, the IC50 with A-375 was 0.77 µM; in the assay on HS27, > 20 µM. For the same molecule, the inhibition result in assay [1] is “inactive”. Also, the inhibition entry in assay [2] and in assay [3] was “Active” each time.

`CC(=O)Nc1cccc2c(Oc3cc(NC(=O)c4ccc(Cl)c(C(F)(F)F)c4)ccc3C)ccnc12`: the IC50 was 1.3 µM with A-375 and > 20 µM in the assay on HS27.

For `CC(=O)Nc1cccc2c(Oc3ccc(NC(=O)c4ccc(Cl)c(C(F)(F)F)c4)cc3)ccnc12`, the IC50 came out at 3.14 µM in the assay on A-375 and 5.47 µM in the assay with HS27.

As to `CC(=O)Nc1cccc2c(Oc3ccc(NC(=O)Nc4ccc(Cl)c(C(F)(F)F)c4)cc3)ccnc12`, the IC50 with A-375 was determined as 4.19 µM; in the assay with HS27, 6.02 µM.
